Source: US4861876A, “Hematoporphyrin derivative and method of preparation and purification” (priority 1986, dated 1989)

Assays:
L1210 cells = assay: In vitro uptake by L1210 tumor cells; format: cell-based, mouse; conditions: 24 hours, 10 μg/ml; for Uptake in vitro: average + SD of three determinations
Description: Uptake of DHE or CHE, purified by gel-exclusion chromatography, was measured by extraction of cells after 24 hour incubations in vitro. Cell pellets (20-30 mg) were suspended in 800 μL of phosphate buffer (pH 3.5) and shaken for 3 minutes with 2 ml of a 1:1 mixture of methanol: chloroform. The lower phase was collected by centrifugation and used for measurement of absorbance at 400 nm.
In vitro uptake of DHE, CHE and HPD, hematoporphyrin, mesochlorin and bonellin by tumor cells was studied using L1210 cells incubated for 24 hours with 10 μg/ml concentrations of each respective compound. The cells were then washed for 30 minutes in fresh medium at 37° C. and drug concentrations were determined.

Lewis lung tumor = assay: In vivo accumulation in Lewis lung tumor (extraction, fluorescence); conditions: for accumulation of fluorescent components at tumor loci (in words) / Uptake in vivo: 5 mg/kg i.p., 48 hours after injection; for Uptake in vivo: average + SD of three determinations; for fluorescence emission of tumor extracts (in words): excitation 400 nm, FIG. IV
Description: In vivo biological studies were conducted using DHE, CHE, HPD, hematoporphyrin, mesochlorin and bonellin. The Lewis lung tumor was maintained in female C57BL/6 mice by S.C. implant. Seven days after implantation, a respective compound was administered to test mice by i.p. injection at a dosage level of 5 mg/kg. Forty-eight hours after injection, each tumor was excised, weighed and homogenized in 50 mM 4-(2-hydroxyethyl)-1-piperazineethanesulfonic acid buffer (pH7) containing 10 mM cetyltrimethyl ammonium bromide (1 m./100 mg tissue). The resulting homogenates were shaken with 2.5 volumes of methanol: chloroform (1:1) and the phases separated by centrifugation. Under these conditions, fluorescence is quantitatively extracted into the chloroform-rich phase. These extracts were used for determination of fluorescence emission spectra (excitation wave length, 400 nm). […] For analytical studies, the extracts were evaporated and the residue hydrolyzed in 0.5 M HCl at 37° C. for 18 hours.

[1] = test system: L1210 mouse/leukemia cells; assay: Photodynamic effects on cell viability as a function of irradiation wavelength (soft-agar clonogenic assay); format: cell-based; conditions: for Action spectrum: cell viability after irradiation at 620 nm (mean + SD of control percentage) / Action spectrum: cell viability after irradiation at 630 nm (mean + SD of control percentage) / Action spectrum: cell viability after irradiation at 640 nm (mean + SD of control percentage) / Action spectrum: cell viability after irradiation at 650 nm (mean + SD of control percentage): 24 h incubation, 5 g/ml (so in the source), 2000 J/m^2, five minutes; for optimal phototoxic light wave length: cells loaded for 24 hours
Description: In order to determine the photosensitization capacity of DHE and CHE, respectively, comparison in vitro tests were prepared using L1210 mouse/leukemia cells grown in culture using Fischer's medium plus 10 percent horse serum. Cell suspensions (7 mg/ml wet weight) were incubated for 24 hours in growth medium containing the 5 µg/ml of the respective photosensitizer. The cell suspensions were, then, washed for 30 minutes at 37° C. in fresh medium to remove readily diffusible porphyrine.
Irradiation was carried out for five minutes (fluence =2000 J/m^2) using a 100 w tungsten-halogen lamp with a wave length selected via narrow bandpass interference filters (=10 nm). Photodynamic effects on cell viability, as a function of irradiation wavelength, were measured by a soft-agar clonogenic assay in the manner described in Kessel, "Determinants of Hematoporphyrincatalyzed Photosensitization" 36 Photochemical Photobiology pp. 99-101 (1982) which is incorporated herein by reference. Light filters were purchased from the Oriel Corp. of Stanford, CT, and the light flux was measured with a thermopile obtained from the same source.

[2] = Storage stability of aqueous solutions of CHE; format: physicochemical
Description: The storage stability of aqueous solutions of CHE (ph 7.5) is determined at -20° C. and at 4° C. respectively.

| Molecule | Uptake in vitro (L1210 cells) | accumulation of fluorescent components at tumor loci (in words) (Lewis lung tumor) | Uptake in vivo (Lewis lung tumor) | Action spectrum: cell viability after irradiation at 620 nm (mean + SD of control percentage) [1] | Action spectrum: cell viability after irradiation at 630 nm (mean + SD of control percentage) [1] | Action spectrum: cell viability after irradiation at 640 nm (mean + SD of control percentage) [1] | Action spectrum: cell viability after irradiation at 650 nm (mean + SD of control percentage) [1] | optimal phototoxic light wave length [1] | lethality relative to DHE ([1]; constant flux of 2000 J/M^2, CHE vs DHE) | in vitro accumulation compared between drugs (in words) (L1210 cells) | fluorescence emission of tumor extracts (in words) (Lewis lung tumor) | storage stability of aqueous solution at 4° C. ([2]; pH 7.5, 4° C.) | storage stability of aqueous solution at -20° C. ([2]; pH 7.5, -20° C.) |
| --- | --- | --- | --- | --- | --- | --- | --- | --- | --- | --- | --- | --- | --- |
| CC1=C(CCC(=O)O)c2cc3nc(cc4[nH]c(cc4C)cc4[nH]c(cc1n2)cc4C)C(C)(C)C3CCC(=O)O (centres unmarked) [Bonellin, bonellin] | 0.06 µg/100 mg cells | no detectible concentration of fluorescent products at tumor loci | < 0.01 | – | – | – | – | – | – | – | – | – | – |
| CCC1=C(C)c2cc3[nH]c(cc4nc(cc5[nH]c(cc1n2)c(C)c5CCC(=O)OC(C)C1=C(C)c2cc5[nH]c(cc6nc(cc7[nH]c(cc1n2)c(C)c7CCC(=O)O)C(CCC(=O)O)=C6C)c(C)c5C(C)O)C(CCC(=O)O)C4C)c(C)c3CC (centres unmarked) [CHE, chlorin-hematoporphyrin ester] | – | – | – | 96 + 5 control percentage | 87 + 5 control percentage | 10 + 2 control percentage | 65 + 2 control percentage | 640 nm | 5 fold | almost identical | greater tumor fluorescence emission at 647 nm than at 627 nm | gradual hydrolysis of the ester-linkage | remained stable |
| Dihematoporphyrin ester [DHE] | 0.49 | accumulation of fluorescent components at tumor loci | 2.1 | 68 + 4 control percentage | 45 + 2 control percentage | 85 + 5 control percentage | 96 + 3 control percentage | 630 nm | – | almost identical | fluorescence at 627 nm only | – | – |
